IC50 data for 28 compounds are collected here from patent US10428083B2, “Heterocyclylmethyl-thienouracile as antagonists of the adenosine-A2B-receptor” (BAYER PHARMA AKTIENGESELLSCHAFT, priority 2015, dated 2019).

The assay addresses human adenosine A2b receptor (Homo sapiens (Human), UniProt P29275). The experiment in a line: Cellular in vitro reporter gene test for A2b receptor activity (CHO-K1, CRE-luciferase, NECA stimulation). It counts as cell-based. As to conditions: recombinant CHO-K1 cell line, CRE-luciferase reporter, antagonism of EC50 concentration of NECA; in some cases means of several determinations, rounded to two significant figures; read-out: A2b receptor IC50. The method, boiled down:
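CHO-K1 cells with CRE-driven luciferase; antagonists co-incubated with NECA at its EC50, determined in a pre-experiment on each test day. Luciferase read by luminescence 3 h after NECA addition.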
In general terms: Reporter assays use an easily measured gene product as a stand-in for the process of interest.

In general, IC50 refers to the concentration at which inhibition is half-maximal.

Chain of human adenosine A2b receptor (P29275 whole entry): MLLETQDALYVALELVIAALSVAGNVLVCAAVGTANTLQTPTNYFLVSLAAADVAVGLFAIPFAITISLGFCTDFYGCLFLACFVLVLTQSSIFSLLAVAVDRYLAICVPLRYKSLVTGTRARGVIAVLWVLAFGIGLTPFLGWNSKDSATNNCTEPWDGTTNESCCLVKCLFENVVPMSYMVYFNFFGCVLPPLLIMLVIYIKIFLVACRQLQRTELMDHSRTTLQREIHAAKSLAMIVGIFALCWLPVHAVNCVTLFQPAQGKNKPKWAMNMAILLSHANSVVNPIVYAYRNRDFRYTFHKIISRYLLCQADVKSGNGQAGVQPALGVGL

Turning to `Cc1c(CN2CCNC2=O)sc2c1c(=O)n(CC(F)F)c(=O)n2CC1CCCO1` (single isomer, unassigned) [Example 221, 3-(2,2-Difluoroethyl)-5-methyl-6-[(2-oxoimidazolidin-1-yl)methyl]-1-(tetrahydrofuran-2-ylmethyl)thieno[2,3-d]pyrimidine-2,4(1H,3H)-dione], the IC50 is 0.029 µM.
The result for `Cc1c(CN2CCNC2=S)sc2c1c(=O)n(CC(C)C)c(=O)n2CCC(F)(F)F` [Example 38, 3-Isobutyl-5-methyl-6-[(2-thioxoimidazolidin-1-yl)methyl]-1-(3,3,3-trifluoropropyl)thieno[2,3-d]pyrimidine-2,4(1H,3H)-dione] reads 0.0019 µM; that for `CCn1c(=O)c2c(C)c(CN3CCN(C(C)C)C3=S)sc2n(CC2CCCO2)c1=O` (racemic) [Example 175, 3-Ethyl-6-[(3-isopropyl-2-thioxoimidazolidin-1-yl)methyl]-5-methyl-1-(tetrahydrofuran-2-ylmethyl)thieno[2,3-d]pyrimidine-2,4(1H,3H)-dione], 0.053 µM.
With `Cc1c(CN2CCNC2=O)sc2c1c(=O)n(CC(C)C)c(=O)n2CC1CCO1` (single isomer, unassigned) [Example 195, 3-Isobutyl-5-methyl-1-(oxetan-2-ylmethyl)-6-[(2-oxoimidazolidin-1-yl)methyl]thieno[2,3-d]pyrimidine-2,4(1H,3H)-dione], the IC50 is 0.041 µM.
As to `Cc1c(CN2CCNC2=NC#N)sc2c1c(=O)n(C(C)C)c(=O)n2CC1CCO1` (single isomer, unassigned) [Example 265, [1-{[3-Isopropyl-5-methyl-1-(oxetan-2-ylmethyl)-2,4-dioxo-1,2,3,4-tetrahydrothieno[2,3-d]pyrimidin-6-yl]methyl}imidazolidin-2-ylidene]cyanamide], the IC50 was found to be 0.014 µM.
The result for `COC(=O)N=C1NCCN1Cc1sc2c(c1C)c(=O)n(C(C)C)c(=O)n2CC1CCO1` (single isomer, unassigned) [Example 457, Methyl [1-{[3-isopropyl-5-methyl-1-(oxetan-2-ylmethyl)-2,4-dioxo-1,2,3,4-tetrahydrothieno[2,3-d]pyrimidin-6-yl]methyl}imidazolidin-2-ylidene]carbamate] reads 0.0071 µM.
Take `Cc1c(CN2CCNC(=O)C2=O)sc2c1c(=O)n(CC(C)(C)C)c(=O)n2CC1CCCO1` (racemic) [Example 483, 3-(2,2-Dimethylpropyl)-6-[(2,3-dioxopiperazin-1-yl)methyl]-5-methyl-1-(tetrahydrofuran-2-ylmethyl)thieno[2,3-d]pyrimidine-2,4(1H,3H)-dione]: the IC50 is 0.045 µM.
In the case of `Cc1c(CN2CCNC2=O)sc2c1c(=O)n(CC(F)(F)F)c(=O)n2CCCF` [Example 93, 1-(3-Fluoropropyl)-5-methyl-6-[(2-oxoimidazolidin-1-yl)methyl]-3-(2,2,2-trifluoroethyl)thieno[2,3-d]pyrimidine-2,4(1H,3H)-dione], the IC50 came out at 0.011 µM.
Regarding `Cc1c(CN2CCNC(=O)C2=O)sc2c1c(=O)n(CC(F)(F)F)c(=O)n2CC1CCCO1` (single isomer, unassigned) [Example 489, 6-[(2,3-Dioxopiperazin-1-yl)methyl]-5-methyl-1-(tetrahydrofuran-2-ylmethyl)-3-(2,2,2-trifluoroethyl)thieno[2,3-d]pyrimidine-2,4(1H,3H)-dione], the IC50 worked out at 0.027 µM.
Consider `CCn1c(=O)c2c(C)c(CN3CCNC3=O)sc2n(CC2COC2)c1=O` [Example 72, 3-Ethyl-5-methyl-1-(oxetan-3-ylmethyl)-6-[(2-oxoimidazolidin-1-yl)methyl]thieno[2,3-d]pyrimidine-2,4(1H,3H)-dione], for which the IC50 was found to be 0.0081 µM.
With `CCn1c(=O)c2c(C)c(Cn3cc[nH]c3=O)sc2n(CC2CCCO2)c1=O` (single isomer, unassigned) [Example 244, 3-Ethyl-5-methyl-6-[(2-oxo-2,3-dihydro-1H-imidazol-1-yl)methyl]-1-(tetrahydrofuran-2-ylmethyl)thieno[2,3-d]pyrimidine-2,4(1H,3H)-dione], the IC50 amounted to 0.013 µM.
With `COCCn1c(=O)n(C(C)C(F)(F)F)c(=O)c2c(C)c(CN3CCNC(=O)C3=O)sc21` (racemic) [Example 491, 6-[(2,3-Dioxopiperazin-1-yl)methyl]-1-(2-methoxyethyl)-5-methyl-3-(1,1,1-trifluoropropan-2-yl)thieno[2,3-d]pyrimidine-2,4(1H,3H)-dione], the IC50 is 0.052 µM.
The same measure for `COCCn1c(=O)n(CC(C)(C)C)c(=O)c2c(C)c(CN3CCNC(=O)C3=O)sc21` [Example 274, 3-(2,2-Dimethylpropyl)-6-[(2,3-dioxopiperazin-1-yl)methyl]-1-(2-methoxyethyl)-5-methylthieno[2,3-d]pyrimidine-2,4(1H,3H)-dione]: 0.024 µM.
Take `CCn1c(=O)c2c(C)c(CN3CCNC3=O)sc2n(CCCCF)c1=O` [Example 52, 3-Ethyl-1-(4-fluorobutyl)-5-methyl-6-[(2-oxoimidazolidin-1-yl)methyl]thieno[2,3-d]pyrimidine-2,4(1H,3H)-dione]: the IC50 amounted to 0.0066 µM.
On to `CCn1c(=O)c2c(C)c(CN3CCNC(=O)C3=O)sc2n(CCOC)c1=O` [Example 120, 6-[(2,3-Dioxopiperazin-1-yl)methyl]-3-ethyl-1-(2-methoxyethyl)-5-methylthieno[2,3-d]pyrimidine-2,4(1H,3H)-dione], for which the IC50 worked out at 0.012 µM.
Consider `Cc1c(CN2CCNC2=NC#N)sc2c1c(=O)n(C(C)C)c(=O)n2CC1CCO1` (racemic) [Example 264, [1-{[3-Isopropyl-5-methyl-1-(oxetan-2-ylmethyl)-2,4-dioxo-1,2,3,4-tetrahydrothieno[2,3-d]pyrimidin-6-yl]methyl}imidazolidin-2-ylidene]cyanamide], for which the IC50 was found to be 0.0031 µM.
The result for `Cc1c(CN2CCNC2=S)sc2c1c(=O)n(CC(C)C)c(=O)n2CC1CCO1` (single isomer, unassigned) [Example 147, 3-Isobutyl-5-methyl-1-(oxetan-2-ylmethyl)-6-[(2-thioxoimidazolidin-1-yl)methyl]thieno[2,3-d]pyrimidine-2,4(1H,3H)-dione] reads 0.022 µM; that for `COC(C)(C)Cn1c(=O)c2c(C)c(CN3CCNC(=O)C3=O)sc2n(CCC(F)(F)F)c1=O` [Example 279, 6-[(2,3-Dioxopiperazin-1-yl)methyl]-3-(2-methoxy-2-methylpropyl)-5-methyl-1-(3,3,3-trifluoropropyl)thieno[2,3-d]pyrimidine-2,4(1H,3H)-dione], 0.02 µM; that for `CCn1c(=O)c2c(C)c(CN3CCC3=O)sc2n(CCC(F)(F)F)c1=O` [Example 2, 3-Ethyl-5-methyl-6-[(2-oxoazetidin-1-yl)methyl]-1-(3,3,3-trifluoropropyl)thieno[2,3-d]pyrimidine-2,4(1H,3H)-dione], 0.011 µM.
The result for `CCn1c(=O)c2c(C)c(CN3CCNC3=O)sc2n(CC(C)OC)c1=O` (single isomer, unassigned; enantiomer 1) [Example 63, 3-Ethyl-1-(2-methoxypropyl)-5-methyl-6-[(2-oxoimidazolidin-1-yl)methyl]thieno[2,3-d]pyrimidine-2,4(1H,3H)-dione (Enantiomer 1)] reads 0.039 µM; that for `COCCn1c(=O)c2c(C)c(Cn3[nH]ccc3=O)sc2n(CC2CCCO2)c1=O` (single isomer, unassigned) [Example 290, 3-(2-Methoxyethyl)-5-methyl-6-[(5-oxo-2,5-dihydro-1H-pyrazol-1-yl)methyl]-1-(tetrahydrofuran-2-ylmethyl)thieno[2,3-d]pyrimidine-2,4(1H,3H)-dione], 0.4 µM.
Turning to `Cc1c(Cn2cc[nH]c2=O)sc2c1c(=O)n(C(C)C)c(=O)n2CCC(F)(F)F` [Example 245, 3-Isopropyl-5-methyl-6-[(2-oxo-2,3-dihydro-1H-imidazol-1-yl)methyl]-1-(3,3,3-trifluoropropyl)thieno[2,3-d]pyrimidine-2,4(1H,3H)-dione], the 50% inhibitory concentration (IC50) was determined as 0.0021 µM.
Consider `CCn1c(=O)c2c(C)c(CN3CCNC3=O)sc2n(CCCF)c1=O` [Example 51, 3-Ethyl-1-(3-fluoropropyl)-5-methyl-6-[(2-oxoimidazolidin-1-yl)methyl]thieno[2,3-d]pyrimidine-2,4(1H,3H)-dione], for which the IC50 came out at 0.012 µM.
For the compound `CCOCCn1c(=O)c2c(C)c(CN3CCNC3=NC#N)sc2n(CCCF)c1=O` [Example 453, [1-{[3-(2-Ethoxyethyl)-1-(3-fluoropropyl)-5-methyl-2,4-dioxo-1,2,3,4-tetrahydrothieno[2,3-d]pyrimidin-6-yl]methyl}imidazolidin-2-ylidene]cyanamide], the half-maximal inhibitory concentration (IC50) worked out at 0.072 µM.
Take `Cc1c(Cn2cc[nH]c2=O)sc2c1c(=O)n(CC(C)(C)C)c(=O)n2CCC(F)(F)F` [Example 505, 3-(2,2-Dimethylpropyl)-5-methyl-6-[(2-oxo-2,3-dihydro-H-imidazol-1-yl)methyl]-1-(3,3,3-trifluoropropyl)thieno[2,3-d]pyrimidine-2,4(1H,3H)-dione]: the IC50 was 0.005 µM.
On to `CCn1c(=O)c2c(C)c(CN3CCNC3=O)sc2n(CC2CCOC2)c1=O` (single isomer, unassigned; enantiomer 2) [Example 75, 3-Ethyl-5-methyl-6-[(2-oxoimidazolidin-1-yl)methyl]-1-(tetrahydrofuran-3-ylmethyl)thieno[2,3-d]pyrimidine-2,4(1H,3H)-dione (Enantiomer 2)], for which the half-maximal inhibitory concentration (IC50) was 0.04 µM.
Turning to `Cc1c(CN2CCNC(=O)C2=O)sc2c1c(=O)n(CC(F)(F)F)c(=O)n2CCC(F)(F)F` [Example 122, 6-[(2,3-Dioxopiperazin-1-yl)methyl]-5-methyl-3-(2,2,2-trifluoroethyl)-1-(3,3,3-trifluoropropyl)thieno[2,3-d]pyrimidine-2,4(1H,3H)-dione], the IC50 is 0.0039 µM.
Consider `Cc1c(CN2CCNC2=S)sc2c1c(=O)n(CC(F)F)c(=O)n2CC1CCCO1` (single isomer, unassigned) [Example 163, 3-(2,2-Difluoroethyl)-5-methyl-1-(tetrahydrofuran-2-ylmethyl)-6-[(2-thioxoimidazolidin-1-yl)methyl]thieno[2,3-d]pyrimidine-2,4(1H,3H)-dione], for which the IC50 stood at 0.0052 µM.
